The source of these data is ChEMBL document CHEMBL1201862, “PubChem BioAssay data set” (2004).

SMILES strings stand for the structures. Calls of active or inactive are those of the source.

In test [1] the target is T1, Tyrosine-protein phosphatase non-receptor type 12 (Homo sapiens, UniProt Q05209).
T1 sequence (Q05209 whole entry): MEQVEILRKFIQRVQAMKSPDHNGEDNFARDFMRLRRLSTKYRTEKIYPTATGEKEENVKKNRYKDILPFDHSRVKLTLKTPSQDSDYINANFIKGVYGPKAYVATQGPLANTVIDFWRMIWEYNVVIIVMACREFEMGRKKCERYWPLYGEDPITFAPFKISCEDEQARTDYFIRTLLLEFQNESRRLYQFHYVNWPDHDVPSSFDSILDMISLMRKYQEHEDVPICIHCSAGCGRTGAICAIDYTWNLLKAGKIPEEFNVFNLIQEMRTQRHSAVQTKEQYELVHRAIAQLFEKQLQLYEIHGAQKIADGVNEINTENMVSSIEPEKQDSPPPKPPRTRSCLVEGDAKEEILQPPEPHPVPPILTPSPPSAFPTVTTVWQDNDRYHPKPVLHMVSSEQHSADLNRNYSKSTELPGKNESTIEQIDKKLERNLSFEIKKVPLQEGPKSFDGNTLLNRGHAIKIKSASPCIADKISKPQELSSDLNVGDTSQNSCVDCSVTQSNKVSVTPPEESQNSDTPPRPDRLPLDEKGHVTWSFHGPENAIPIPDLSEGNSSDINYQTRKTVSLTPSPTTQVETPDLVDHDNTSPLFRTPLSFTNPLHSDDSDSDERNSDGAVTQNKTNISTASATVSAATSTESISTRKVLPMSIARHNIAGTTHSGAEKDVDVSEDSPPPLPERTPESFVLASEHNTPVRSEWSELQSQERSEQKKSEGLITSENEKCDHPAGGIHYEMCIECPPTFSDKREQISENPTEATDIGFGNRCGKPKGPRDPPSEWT
In words: SAR Selectivity Analysis of small molecule inhibitors of PEST using pCAP in a fluorescence assay. [Related pubchem assays (depositor defined):AID1779, AID1784, AID2135]. Format: functional.

Test [2] deals with T2, Tyrosine-protein phosphatase non-receptor type 22 (Homo sapiens, UniProt Q9Y2R2).
T2 sequence (Q9Y2R2 whole entry): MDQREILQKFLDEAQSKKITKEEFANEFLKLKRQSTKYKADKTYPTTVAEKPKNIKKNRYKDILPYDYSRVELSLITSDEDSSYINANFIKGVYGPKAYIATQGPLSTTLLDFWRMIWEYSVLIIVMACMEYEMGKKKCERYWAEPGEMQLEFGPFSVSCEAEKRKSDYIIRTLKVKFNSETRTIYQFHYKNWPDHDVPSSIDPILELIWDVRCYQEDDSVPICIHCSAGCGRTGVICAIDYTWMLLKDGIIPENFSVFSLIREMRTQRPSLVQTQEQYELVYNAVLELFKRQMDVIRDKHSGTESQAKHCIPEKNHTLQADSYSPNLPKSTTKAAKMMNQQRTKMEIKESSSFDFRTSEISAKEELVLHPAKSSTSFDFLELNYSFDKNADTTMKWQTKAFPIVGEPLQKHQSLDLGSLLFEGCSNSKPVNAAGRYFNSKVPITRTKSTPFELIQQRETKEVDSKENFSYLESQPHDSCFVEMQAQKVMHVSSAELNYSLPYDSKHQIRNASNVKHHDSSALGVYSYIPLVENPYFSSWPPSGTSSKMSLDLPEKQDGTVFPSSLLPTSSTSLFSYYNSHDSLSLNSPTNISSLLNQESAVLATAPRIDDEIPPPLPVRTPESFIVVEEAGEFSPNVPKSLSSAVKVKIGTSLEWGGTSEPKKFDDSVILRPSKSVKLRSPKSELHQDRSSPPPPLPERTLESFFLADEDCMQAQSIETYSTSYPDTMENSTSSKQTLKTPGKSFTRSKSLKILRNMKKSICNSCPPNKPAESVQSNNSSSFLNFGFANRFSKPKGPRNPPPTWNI
In words: LYP (PTPN22) phosphatase inhibitor potency, SAR follow-up, biochemical, pCAP fluorogenic substrate, fluorescence, set 3 (AID 449727). Format: functional.

Test [3] concerns the target T2, Tyrosine-protein phosphatase non-receptor type 22. In words: SAR LYP1 Fluorescent Assay using OMFP substrate for In Vitro dose response studies - Set 3. [Related pubchem assays (depositor defined):AID1779, AID1784, AID2140, AID2686]. Format: functional.
Test [4] has as its target Glyceraldehyde-3-phosphate dehydrogenase (Homo sapiens, UniProt P04406).
The target in test [5] is G-protein coupled receptor 55 (Homo sapiens, UniProt Q9Y2T6). In words: GPR55 antagonists blocking LPI-driven arrestin recruitment, primary screen, imaging, U2OS, beta-arrestin-GFP, LPI agonist (AID 2013).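 Note: antagonist potency measured as reduced agonist-driven arrestin aggregation.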 Format: functional. (In general: Activated receptors often draw arrestin, which recruitment assays turn into a signal.)
Chain of G-protein coupled receptor 55 (Q9Y2T6 whole entry): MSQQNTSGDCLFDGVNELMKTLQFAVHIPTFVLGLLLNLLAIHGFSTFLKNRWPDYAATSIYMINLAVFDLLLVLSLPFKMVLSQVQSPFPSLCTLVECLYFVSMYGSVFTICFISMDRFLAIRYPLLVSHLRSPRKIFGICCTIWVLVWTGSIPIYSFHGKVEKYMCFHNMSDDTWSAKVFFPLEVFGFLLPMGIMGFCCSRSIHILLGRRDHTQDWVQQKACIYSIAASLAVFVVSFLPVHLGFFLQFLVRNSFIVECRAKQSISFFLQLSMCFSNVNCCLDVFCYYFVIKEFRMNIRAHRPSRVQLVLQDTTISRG
Test [6] deals with Peroxisome proliferator-activated receptor gamma/Nuclear receptor coactivator 2 (Homo sapiens, UniProt P37231). The test is classed as functional.
Test [7] addresses Peroxisome proliferator-activated receptor gamma/Nuclear receptor coactivator 3 (Homo sapiens, UniProt P37231). The test is classed as functional.
In test [8] the target is Peroxisome proliferator-activated receptor gamma/Nuclear receptor coactivator 1 (Homo sapiens, UniProt P37231). Format: functional.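 Note: agonist potency as compounds enhance coactivator SRC-1 recruitment to PPARgamma.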
Chain of Peroxisome proliferator-activated receptor gamma/Nuclear receptor coactivator 1 (P37231 whole entry): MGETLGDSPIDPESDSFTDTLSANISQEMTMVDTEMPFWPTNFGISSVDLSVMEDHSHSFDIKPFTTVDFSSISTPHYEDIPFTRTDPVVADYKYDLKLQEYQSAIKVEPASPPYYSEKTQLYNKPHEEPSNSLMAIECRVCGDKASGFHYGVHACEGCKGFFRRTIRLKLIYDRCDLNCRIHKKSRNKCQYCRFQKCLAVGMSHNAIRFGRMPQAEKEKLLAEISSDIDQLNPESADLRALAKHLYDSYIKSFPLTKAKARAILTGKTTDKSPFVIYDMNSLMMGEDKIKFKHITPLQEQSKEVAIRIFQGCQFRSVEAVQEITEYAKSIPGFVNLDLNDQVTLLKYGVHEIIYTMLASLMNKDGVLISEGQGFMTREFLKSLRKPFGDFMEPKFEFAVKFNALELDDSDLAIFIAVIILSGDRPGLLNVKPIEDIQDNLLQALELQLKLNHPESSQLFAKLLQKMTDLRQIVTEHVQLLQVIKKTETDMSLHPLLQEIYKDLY
Chain of Peroxisome proliferator-activated receptor gamma/Nuclear receptor coactivator 1 (Q15788 whole entry, further chain): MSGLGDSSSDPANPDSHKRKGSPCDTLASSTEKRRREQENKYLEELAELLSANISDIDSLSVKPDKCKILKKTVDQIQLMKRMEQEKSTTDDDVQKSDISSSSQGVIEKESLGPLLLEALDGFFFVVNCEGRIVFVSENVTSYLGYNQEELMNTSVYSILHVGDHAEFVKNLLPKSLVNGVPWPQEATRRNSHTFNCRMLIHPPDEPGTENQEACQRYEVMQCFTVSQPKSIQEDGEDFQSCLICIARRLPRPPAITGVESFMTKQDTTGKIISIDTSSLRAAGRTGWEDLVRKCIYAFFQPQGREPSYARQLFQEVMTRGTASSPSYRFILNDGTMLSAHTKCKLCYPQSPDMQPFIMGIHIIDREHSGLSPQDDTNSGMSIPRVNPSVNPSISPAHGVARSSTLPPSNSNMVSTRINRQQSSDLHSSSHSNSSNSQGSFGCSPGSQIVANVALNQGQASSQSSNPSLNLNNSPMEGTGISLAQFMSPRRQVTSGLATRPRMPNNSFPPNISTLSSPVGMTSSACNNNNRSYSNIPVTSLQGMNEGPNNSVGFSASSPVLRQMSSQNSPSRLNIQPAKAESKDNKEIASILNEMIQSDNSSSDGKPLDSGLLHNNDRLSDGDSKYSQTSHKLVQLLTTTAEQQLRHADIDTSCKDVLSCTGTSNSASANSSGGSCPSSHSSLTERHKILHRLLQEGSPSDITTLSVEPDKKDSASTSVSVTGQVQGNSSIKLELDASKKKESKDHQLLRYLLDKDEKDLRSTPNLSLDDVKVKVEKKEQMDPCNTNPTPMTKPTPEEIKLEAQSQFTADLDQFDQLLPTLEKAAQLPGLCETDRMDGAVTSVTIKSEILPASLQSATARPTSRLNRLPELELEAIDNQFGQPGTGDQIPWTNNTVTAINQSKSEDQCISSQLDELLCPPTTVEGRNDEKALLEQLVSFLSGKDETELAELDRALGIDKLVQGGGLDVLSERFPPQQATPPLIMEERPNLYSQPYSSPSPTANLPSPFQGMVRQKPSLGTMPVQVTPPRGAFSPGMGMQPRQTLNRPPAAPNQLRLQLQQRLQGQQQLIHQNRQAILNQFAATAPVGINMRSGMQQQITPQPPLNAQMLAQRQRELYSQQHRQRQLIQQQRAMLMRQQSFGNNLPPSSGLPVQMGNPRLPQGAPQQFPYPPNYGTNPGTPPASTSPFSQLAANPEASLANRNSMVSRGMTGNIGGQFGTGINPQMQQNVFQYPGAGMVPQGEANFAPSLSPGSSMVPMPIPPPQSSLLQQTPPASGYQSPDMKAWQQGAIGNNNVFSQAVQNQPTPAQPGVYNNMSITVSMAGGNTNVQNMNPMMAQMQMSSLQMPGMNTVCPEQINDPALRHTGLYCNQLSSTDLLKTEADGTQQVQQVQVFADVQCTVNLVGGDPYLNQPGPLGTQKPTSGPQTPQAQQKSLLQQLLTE
A short description of test [9]: cytotoxicity in HPDE-C7 cells, cell-based, fluorescence, HTS (AID 430). The test is classed as functional. As to conditions: Homo sapiens.
The nature of test [10]: cytotoxicity in KRAS-transformed pancreatic duct cells, primary screen, cell-based, fluorescence, HTS (AID 431).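 Note: cell line used: HPDE-C7K.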 Format: functional. The note with it: Homo sapiens.
Test [11] deals with T3, Heat shock factor protein 1 (Mus musculus, UniProt P38532).
T3 sequence (P38532 whole entry): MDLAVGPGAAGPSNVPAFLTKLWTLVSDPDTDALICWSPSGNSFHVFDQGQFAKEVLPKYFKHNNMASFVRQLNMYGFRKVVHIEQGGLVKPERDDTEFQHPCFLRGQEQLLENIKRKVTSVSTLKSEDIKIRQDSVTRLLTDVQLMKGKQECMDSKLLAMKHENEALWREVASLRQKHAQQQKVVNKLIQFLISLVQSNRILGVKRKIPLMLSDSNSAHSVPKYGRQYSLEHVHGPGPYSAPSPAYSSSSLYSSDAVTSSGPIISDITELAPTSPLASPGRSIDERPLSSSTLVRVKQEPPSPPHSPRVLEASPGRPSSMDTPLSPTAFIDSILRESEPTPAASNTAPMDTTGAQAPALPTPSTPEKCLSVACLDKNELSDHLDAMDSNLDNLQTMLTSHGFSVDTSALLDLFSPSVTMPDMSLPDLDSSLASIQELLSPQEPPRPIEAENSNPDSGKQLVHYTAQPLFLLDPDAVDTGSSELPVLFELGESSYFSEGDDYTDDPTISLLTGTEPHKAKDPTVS
In words: inhibition of MG132-induced HSE-luciferase signal, confirmation, cell-based, NIH3T3, luminescence, dose retest (AID 2382).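 Note: NIH3T3 fibroblasts with HSF1-driven luciferase reporter stressed by proteasome inhibitor MG132; luminescence from HSF1-driven luciferase expression after 8 hours of MG132 stress.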 The test is classed as functional.

The test system of test [12] is H4. In words: Luminescence Cell-Based Dose Response HTS to Identify Activators of 5'UTR Stem-Loop Driven Prion Protein mRNA Translation in H4 Neuroglioblastoma Cells. [Related pubchem assays: 1829 (Project Summary), 1814 (Primary HTS)]. Format: functional. As to conditions: Homo sapiens.
Test [13] has as its system Streptococcus sp. 'group A'. In words: growth inhibition of control SK(-) GAS strain, dose response, counter-screen for streptokinase expression inhibitor project, luminescence, kanamycin, BacTiterGlo, confirmation (AID 1900). Format: functional, organism-based. A general note: The purpose of a counterscreen is to sort out artefacts and off-target activity.
Test [14] relates to Streptococcus. In words: Group A Streptococcus viability loss, dose response, counter-screen for streptokinase expression inhibitor project, luminescence, BacTiterGlo (AID 1915).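 Note: potency for reduction of bacterial viability or growth.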 Format: functional, organism-based.
Test [15] is described as follows: HEp-2 cell cytotoxicity, dose response, cytotoxicity control for RSV inhibitor project, HTS (AID 2410). Format: functional. As to conditions: human respiratory syncytial virus.
The nature of test [16]: Luminescence Cell-Based Dose Response HTS to Identify Activators of Luciferase Translation or Activity in H4 […] Cells. [Related pubchem assays: 1829 (Project Summary), 1814 (Primary HTS)]. Format: functional.
The target in test [17] is T4, Streptokinase A (Streptococcus pyogenes serotype M1, UniProt P10520).
T4 sequence (P10520 whole entry): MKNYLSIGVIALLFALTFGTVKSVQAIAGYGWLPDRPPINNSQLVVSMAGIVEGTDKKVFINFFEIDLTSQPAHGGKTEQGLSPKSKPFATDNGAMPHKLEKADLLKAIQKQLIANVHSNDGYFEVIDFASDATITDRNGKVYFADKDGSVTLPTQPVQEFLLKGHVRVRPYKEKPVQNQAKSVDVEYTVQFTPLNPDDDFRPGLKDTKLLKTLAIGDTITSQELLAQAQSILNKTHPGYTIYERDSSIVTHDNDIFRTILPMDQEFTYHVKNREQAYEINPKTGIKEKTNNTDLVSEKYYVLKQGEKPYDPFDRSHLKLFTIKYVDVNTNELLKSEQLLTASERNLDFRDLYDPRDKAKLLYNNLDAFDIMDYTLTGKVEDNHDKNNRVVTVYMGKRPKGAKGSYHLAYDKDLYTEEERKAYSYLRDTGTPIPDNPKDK
In words: S. pyogenes streptokinase expression inhibitors, potency, dose response, plasminogen activation absorbance, OD405 (AID 1914).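 Note: secreted streptokinase activity via plasminogen activation per viability signal from cell pellet.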 The test is classed as functional, Streptococcus pyogenes M1 GAS.

In test [18] the target is T5, ORF 73 (Human herpesvirus 8, UniProt O40947).
T5 sequence (O40947 whole entry): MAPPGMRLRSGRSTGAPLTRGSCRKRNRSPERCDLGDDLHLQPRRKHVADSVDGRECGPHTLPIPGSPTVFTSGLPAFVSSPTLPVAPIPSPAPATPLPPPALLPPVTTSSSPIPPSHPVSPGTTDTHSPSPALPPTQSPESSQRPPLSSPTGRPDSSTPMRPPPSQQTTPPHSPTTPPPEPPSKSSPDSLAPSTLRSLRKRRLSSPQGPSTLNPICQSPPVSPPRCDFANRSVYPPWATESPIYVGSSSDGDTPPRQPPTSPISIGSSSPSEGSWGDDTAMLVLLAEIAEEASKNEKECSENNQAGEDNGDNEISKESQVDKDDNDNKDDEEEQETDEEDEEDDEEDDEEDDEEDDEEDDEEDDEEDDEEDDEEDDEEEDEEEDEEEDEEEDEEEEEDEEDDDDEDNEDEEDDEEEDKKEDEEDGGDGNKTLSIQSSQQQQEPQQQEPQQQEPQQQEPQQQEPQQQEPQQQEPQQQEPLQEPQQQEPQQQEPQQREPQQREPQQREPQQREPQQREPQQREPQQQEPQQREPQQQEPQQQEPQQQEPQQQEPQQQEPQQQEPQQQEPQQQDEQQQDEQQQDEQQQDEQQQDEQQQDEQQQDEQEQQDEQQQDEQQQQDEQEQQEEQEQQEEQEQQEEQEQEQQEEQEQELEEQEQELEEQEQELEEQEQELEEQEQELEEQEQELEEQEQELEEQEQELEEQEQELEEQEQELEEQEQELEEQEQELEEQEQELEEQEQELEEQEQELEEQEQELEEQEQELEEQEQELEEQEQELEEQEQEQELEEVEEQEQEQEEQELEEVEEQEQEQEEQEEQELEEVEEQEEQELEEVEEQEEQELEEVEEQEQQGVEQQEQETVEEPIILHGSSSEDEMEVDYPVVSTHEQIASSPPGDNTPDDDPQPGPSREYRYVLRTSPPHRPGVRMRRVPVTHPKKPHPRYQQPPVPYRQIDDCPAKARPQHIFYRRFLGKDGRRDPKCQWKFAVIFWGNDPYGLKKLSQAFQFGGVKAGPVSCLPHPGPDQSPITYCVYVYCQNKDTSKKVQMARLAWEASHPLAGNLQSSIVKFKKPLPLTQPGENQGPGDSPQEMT
In words: inhibitors of C-LANA binding to LBS DNA, dose response, biochemical, fluorescence polarization, cherry-picked samples (AID 504725).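 Note: fluorescence polarization of a labeled DNA duplex reporting LANA DNA binding; potency is for inhibitors that block LANA binding to the DNA.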 The arrangement: species or system Human gammaherpesvirus 8. In general terms: In fluorescence polarisation assays a small probe gives low polarisation when free and higher when bound to something large.

Chain of Peroxisome proliferator-activated receptor gamma/Nuclear receptor coactivator 3 (P37231 whole entry): as the sequence (P37231 whole entry) above
Chain of Peroxisome proliferator-activated receptor gamma/Nuclear receptor coactivator 3 (Q9Y6Q9 whole entry, further chain): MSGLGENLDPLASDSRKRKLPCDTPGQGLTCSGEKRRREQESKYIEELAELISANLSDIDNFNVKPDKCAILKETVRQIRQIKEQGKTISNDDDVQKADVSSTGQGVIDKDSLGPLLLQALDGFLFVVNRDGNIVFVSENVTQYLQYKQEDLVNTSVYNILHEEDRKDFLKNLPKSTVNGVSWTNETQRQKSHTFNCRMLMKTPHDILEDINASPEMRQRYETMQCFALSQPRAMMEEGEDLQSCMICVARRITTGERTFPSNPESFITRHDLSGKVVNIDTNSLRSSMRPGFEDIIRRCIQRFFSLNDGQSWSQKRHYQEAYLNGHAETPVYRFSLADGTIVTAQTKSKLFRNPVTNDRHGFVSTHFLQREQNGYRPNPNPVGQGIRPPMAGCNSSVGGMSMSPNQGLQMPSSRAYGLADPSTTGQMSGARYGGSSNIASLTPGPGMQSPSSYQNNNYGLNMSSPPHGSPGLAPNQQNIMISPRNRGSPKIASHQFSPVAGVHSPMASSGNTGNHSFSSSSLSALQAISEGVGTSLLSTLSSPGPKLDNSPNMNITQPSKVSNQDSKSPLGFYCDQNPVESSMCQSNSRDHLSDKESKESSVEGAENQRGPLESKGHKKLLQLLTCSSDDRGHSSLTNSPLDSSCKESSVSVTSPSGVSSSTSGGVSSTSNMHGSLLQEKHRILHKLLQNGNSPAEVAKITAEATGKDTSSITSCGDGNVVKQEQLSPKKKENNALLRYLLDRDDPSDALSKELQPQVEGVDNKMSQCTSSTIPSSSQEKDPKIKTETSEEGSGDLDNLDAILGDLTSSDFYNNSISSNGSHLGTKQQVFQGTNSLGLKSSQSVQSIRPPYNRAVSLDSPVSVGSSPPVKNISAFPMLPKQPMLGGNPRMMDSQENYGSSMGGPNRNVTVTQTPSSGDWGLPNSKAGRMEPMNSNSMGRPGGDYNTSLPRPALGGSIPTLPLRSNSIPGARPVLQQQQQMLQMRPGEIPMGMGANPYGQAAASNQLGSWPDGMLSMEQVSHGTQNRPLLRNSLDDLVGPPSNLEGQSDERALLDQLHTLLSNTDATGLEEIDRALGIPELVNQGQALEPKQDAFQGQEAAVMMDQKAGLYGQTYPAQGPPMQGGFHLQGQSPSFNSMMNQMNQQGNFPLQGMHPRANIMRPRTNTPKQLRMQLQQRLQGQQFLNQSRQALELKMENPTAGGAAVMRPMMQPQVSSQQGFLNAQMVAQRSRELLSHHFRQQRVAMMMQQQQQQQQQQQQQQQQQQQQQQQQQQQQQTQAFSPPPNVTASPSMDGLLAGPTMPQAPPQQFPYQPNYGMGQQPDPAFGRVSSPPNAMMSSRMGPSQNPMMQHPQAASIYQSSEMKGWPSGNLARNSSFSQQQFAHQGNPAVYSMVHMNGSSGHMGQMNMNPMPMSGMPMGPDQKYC
Chain of Glyceraldehyde-3-phosphate dehydrogenase (P04406 whole entry): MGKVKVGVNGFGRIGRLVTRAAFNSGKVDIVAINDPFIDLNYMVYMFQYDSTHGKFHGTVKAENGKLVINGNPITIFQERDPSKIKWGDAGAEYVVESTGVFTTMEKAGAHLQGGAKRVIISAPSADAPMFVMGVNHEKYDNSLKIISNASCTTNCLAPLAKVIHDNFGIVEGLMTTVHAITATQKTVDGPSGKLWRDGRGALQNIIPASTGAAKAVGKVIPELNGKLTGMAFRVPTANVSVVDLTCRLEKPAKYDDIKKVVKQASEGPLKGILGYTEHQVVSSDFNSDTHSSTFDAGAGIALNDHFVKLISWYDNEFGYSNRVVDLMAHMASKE

A word on the IC50: it is the concentration that gives 50% inhibition. For the molecule `O=C(O)CN1C(=O)/C(=C\c2ccc(C(=O)O)cc2)SC1=S`, the half-maximal inhibitory concentration (IC50) was 24.5 µM (active) in test [1], 88.9 µM (active) in test [2], > 100 µM (inactive) in [3] and > 100 µM (not active) in test [4].

As to `Clc1ccc(-c2noc(CSc3nnc(Cc4cccs4)n3-c3ccccc3)n2)cc1`, in test [5], the IC50 is 2.67 µM (active).

As for `O=C(O)CN1C(=O)/C(=C\c2cccc([N+](=O)[O-])c2)SC1=S`, the IC50 in test [1] is > 100 µM (inactive); in test [2], > 100 µM (inactive); in test [3] it was > 100 µM (inactive); in test [4], > 100 µM (not active).

Usually EC50 stands for the concentration giving half of the maximal effect. Take `COc1ccccc1N(CC(=O)NCC1CCCO1)C(=O)CCC(=O)Nc1nccs1` (stereo not drawn): the 50% effective concentration (EC50) in test [6], in test [7] and in [8] was > 79.4 µM (not active) each time.

Consider `Cc1cc(C)c2c(n1)nn1c(N3CCN(c4ccccc4)CC3)cc(C)nc21`, for which the EC50 in test [9] and in [10] was > 20 µM (not active) throughout.

For `COc1ccc(C(=O)CSc2nnc(-c3ccc(S(=O)(=O)N4CCOCC4)cc3)o2)cc1`, the EC50 is 26.1 µM (not active) in [6], 53.5 µM (not active) in test [7] and 40.5 µM (not active) in [8].

Consider `CCOC(=O)c1c(NC(=O)Cc2cccs2)sc(C(=O)NC2CCCC2)c1C`, for which the EC50 in [6], in test [7] and in test [8] was > 79.4 µM (not active) in each case.

`CCOC(=O)N1CCN(S(=O)(=O)c2cc(Br)cc3c2N(C(C)=O)C(C)C3)CC1` (stereo not drawn): the EC50 in test [9] and in test [10] was > 20 µM (not active) each time.

Take `Cc1ccc(-n2ncc3c(NCc4ccc5c(c4)OCO5)ncnc32)c(C)c1`: the figures for the EC50 in test [11], in test [9] and in [10] were > 195 µM (not active), > 20 µM (not active) and > 20 µM (not active), respectively.

One may read the CC50 as the concentration giving 50% cytotoxicity. On to `N=C1S/C(=C\c2cn[nH]c2-c2ccc(F)cc2)C(=O)N1c1ccccc1F`, for which the half-maximal effective concentration (EC50) in test [12] is > 120 µM (not active); in test [13], 4.49 µM (active); in test [14], 38.9 µM (active); in test [16] it was 8.92 µM (active); in test [17], > 150 µM (not active). In test [5], the IC50 is < 0.5 µM (active). Also, the CC50 in [15] is 20.2 µM (active).

In general, AC50 refers to the concentration giving half of the maximal activity seen. With `CC(Oc1ccccc1)c1nnc(N)s1` (stereo not drawn), the half-maximal activity concentration (AC50) in test [18] is 53 µM (active).
